Measured values: paper PMC3578829, “A Small Molecule (Pluripotin) as a Tool for Studying Cancer Stem Cell Biology: Proof of Concept” (PLoS ONE, 2013)

Experiments:
[1] = tested on: phospho-ERK1/2; assay: Immunoblotting of phospho-ERK1/2 relative to total ERK1/2 in HT29; type: cell-based
Method: To determine if SC-1 reached the same target in the treated colon tumor lines, changes in abundance of phospho-ERK 1/2 (p-ERK) and total ERK1/2 protein were evaluated by immunoblotting at time points similar to those previously studied (Figure 3A). In the HT29 treated tumor line, phospho-ERK 1/2 protein levels (relative to total ERK1/2 protein levels) were decreased in 5 min (67±0.06% of control value), reached a trough at 1 hr (46±0.06% of control), and remained decreased during the remainder of the time course (4 hrs, 68±0.10% of control value). Thus, it is likely SC-1 is reaching its cognate molecular target in the HT29 tumor line.
(§1) Standard protein electrophoretic techniques were followed using previously published protocols. For these studies, the colon lines were cultured for 5 days with and without treatments, harvested with trypsin (0.25% trypsin 0.5 mM EDTA, Invitrogen), counted and lysed with a whole cell lysis buffer (10 mM Tris, 1.0 mM EDTA, 50 mM NaCl, 0.5% deoxycholate, 0.5% NP-40, 0.5% SDS, 1.0 mM PMSF, and aprotonin and a cocktail of phosphatase and protease inhibitors). The whole cell lysate was heated to 100°C for 10 min and then fractionated (1000 g, 10 min, 4°C). Protein concentrations were measured with the Pierce BCA Protein Assay. Twenty to 40 µg of protein lysate per lane were loaded onto 10% SDS polyacrylamide gels (Ready-Gels, Biorad) with Laemmli buffer. For immunoblotting, the primary antibodies were diluted in Tween/Tris wash buffer (0.1 mM Tris-HCl pH 7.5, 2.5% Tween-20, 150 mM NaCl) and 5% BSA or nonfat dry milk and incubated overnight at 4°C. Visualization of specific bands was accomplished with an alkaline phosphatase-labeled secondary anti-immunoglobulin antibody and the ECF Chemifluorescent reagent (GE Amersham). Pixel intensity of the imaged bands was measured using STORM (GE Amersham) and Image Quant Software. Normalization for loading was accomplished by reprobing with an anti-actin antibody, quantification of pixel intensity and data normalization.

[2] = tested on: HT29; assay: Sphere formation in serum free media and low attachment vessels; type: cell-based; conditions: serum free media, low attachment vessels, 0.1 µM SC-1, Day 1 and Day 5
Method: HT29 tumor line was cultured at 0.5–8 cells/µl in serum free media (RPMI 1640 containing EGF (20 ng/ml), bFGF (10 ng/ml) and B27 supplement) one day prior to addition of SC-1 (0.1 µM). The number of spheres per well was counted on Day 1 (A) and Day 5 (B) following treatment. Statistically significant effects (*p<0.05) for SC-1 treatment were found at all conditions where spheres formed. A representative experiment of 3 is shown here. (PDF) Click here for additional data file.

[3] = biological target: T1, RSK2 (Homo sapiens, UniProt P51812); assay: In vitro kinase inhibition assay (modified Nguyen et al.); type: biochemical; conditions: RSK2 N-terminal domain; mean±SD, n = 5; concentration inhibiting 50% of control activity
T1 sequence (P51812 whole entry, species assumed, the tested form may be a part): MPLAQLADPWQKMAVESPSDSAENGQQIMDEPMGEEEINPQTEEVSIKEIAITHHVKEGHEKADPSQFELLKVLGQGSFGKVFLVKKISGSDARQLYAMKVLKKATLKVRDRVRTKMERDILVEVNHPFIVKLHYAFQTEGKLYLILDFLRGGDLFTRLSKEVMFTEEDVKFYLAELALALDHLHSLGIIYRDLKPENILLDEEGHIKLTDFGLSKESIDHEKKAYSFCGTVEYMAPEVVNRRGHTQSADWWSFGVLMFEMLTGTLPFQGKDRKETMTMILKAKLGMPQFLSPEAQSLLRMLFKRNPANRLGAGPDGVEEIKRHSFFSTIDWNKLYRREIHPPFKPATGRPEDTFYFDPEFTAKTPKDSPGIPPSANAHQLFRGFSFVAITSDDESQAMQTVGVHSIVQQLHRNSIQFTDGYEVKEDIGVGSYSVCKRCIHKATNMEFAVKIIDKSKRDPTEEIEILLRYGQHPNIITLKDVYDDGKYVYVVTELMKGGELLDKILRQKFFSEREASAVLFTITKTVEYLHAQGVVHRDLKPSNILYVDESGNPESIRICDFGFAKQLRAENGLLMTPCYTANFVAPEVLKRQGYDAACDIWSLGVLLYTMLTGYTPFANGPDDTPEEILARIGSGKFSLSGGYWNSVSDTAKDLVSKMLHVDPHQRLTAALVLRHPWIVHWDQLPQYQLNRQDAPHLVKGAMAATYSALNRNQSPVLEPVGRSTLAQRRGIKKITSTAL
Method: (§2) The RSK2 in vitro kinase inhibition assay utilized was a modification of protocols established by Nguyen et al.. Additional protocols that confirmed the results depicted in Figure 4 and evaluated kinase inhibitory activity in a random selection of protein kinases (Table 3) were conducted at Reaction Biology Corporation (Malvern, PA). This was a miniaturized ^33P-based screening assay.

[4] = tested on: COLO 205; assay: Cell growth after five day exposure; type: cell-based; conditions: 0.1 µM added day 1, harvested 5 days later
Method: (§3) Five day exposures were conducted.

[5] = tested on: KM12; assay: Cell growth after five day exposure; type: cell-based; conditions: 0.1 µM added day 1, harvested 5 days later
Method: as §3

[6] = tested on: SW-620; assay: Cell growth after five day exposure; type: cell-based; conditions: 0.1 µM added day 1, harvested 5 days later
Method: as §3

[7] = tested on: colon tumor lines; assay: Cloning assay, all colon tumor lines; type: cell-based
Method: Culture dishes were transferred to a refrigerator (4°C) for 15 min, to room temperature for 10 min, and then to culture incubators. An upper layer of 0.5 ml culture medium was applied on day 0. Cultures were stained with MTT (1 mg/ml) for visualization and imaging at multiple time intervals (day 7 and 14). Cumulative counts of colonies (diameters, >60 µm) and cumulative volumes of CFU (diameters >120 µm) were determined with an Omnicon FAS-II (Bausch & Lomb, Rochester, NY) following calibration with an Omnicon test plate 3 and polystyrene microspheres embedded in soft agar matrix. The evaluable region of each culture dish (35 contiguous fields equivalent to 51% of the cell layer culture volume) was analyzed. Selective scoring of viable cell groups was achieved by adjustment of the instrument detection threshold to exclude images of nonstained cellular material and debris. The data was analyzed with Lotus Symphony software.

[8] = biological target: T2, PIM1 (Homo sapiens, UniProt P11309); assay: Miniaturized 33P-based kinase screening assay; type: biochemical; conditions: max 10 µM, 3-fold serial dilution, n = 2
T2 construct: purchased Reaction Biology Corporation (Malvern, PA), contract assay
T2 sequence (P11309 whole entry): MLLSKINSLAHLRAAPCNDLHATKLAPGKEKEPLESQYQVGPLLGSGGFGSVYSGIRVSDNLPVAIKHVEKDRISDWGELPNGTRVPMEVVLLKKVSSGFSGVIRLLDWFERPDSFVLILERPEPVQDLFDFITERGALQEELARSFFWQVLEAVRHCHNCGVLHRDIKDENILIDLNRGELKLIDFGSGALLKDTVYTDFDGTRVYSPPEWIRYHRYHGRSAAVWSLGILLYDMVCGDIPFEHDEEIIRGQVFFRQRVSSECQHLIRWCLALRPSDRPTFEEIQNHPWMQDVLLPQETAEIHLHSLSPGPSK
Method: as §2

[9] = biological target: T3, RSK4 (Homo sapiens, UniProt Q9UK32); assay: Miniaturized 33P-based kinase screening assay; type: biochemical; conditions: max 10 µM, 3-fold serial dilution, n = 2
T3 construct: purchased Reaction Biology Corporation (Malvern, PA), contract assay
T3 sequence (Q9UK32 whole entry): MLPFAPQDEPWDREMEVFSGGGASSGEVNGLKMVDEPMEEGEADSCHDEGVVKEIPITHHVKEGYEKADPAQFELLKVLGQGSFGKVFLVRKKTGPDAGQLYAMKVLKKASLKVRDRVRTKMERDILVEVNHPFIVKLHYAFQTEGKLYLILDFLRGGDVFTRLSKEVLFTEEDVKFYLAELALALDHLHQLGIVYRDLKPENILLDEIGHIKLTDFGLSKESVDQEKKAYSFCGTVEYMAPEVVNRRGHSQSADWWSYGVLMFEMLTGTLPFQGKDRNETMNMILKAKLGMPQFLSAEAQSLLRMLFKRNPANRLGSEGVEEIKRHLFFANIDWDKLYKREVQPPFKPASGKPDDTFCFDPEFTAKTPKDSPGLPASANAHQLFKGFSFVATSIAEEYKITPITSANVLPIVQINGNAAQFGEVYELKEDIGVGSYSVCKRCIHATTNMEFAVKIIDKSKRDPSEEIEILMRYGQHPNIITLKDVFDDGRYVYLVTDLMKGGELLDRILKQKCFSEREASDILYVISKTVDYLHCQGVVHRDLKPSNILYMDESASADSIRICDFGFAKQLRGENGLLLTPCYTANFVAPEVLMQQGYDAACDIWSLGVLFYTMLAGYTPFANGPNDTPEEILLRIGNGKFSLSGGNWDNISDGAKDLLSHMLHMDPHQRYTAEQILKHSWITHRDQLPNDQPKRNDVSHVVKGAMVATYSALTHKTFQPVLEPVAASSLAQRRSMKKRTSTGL
Method: as §2

[10] = biological target: T1, RSK2; assay: Miniaturized 33P-based kinase screening assay; type: biochemical; conditions: max 10 µM, 3-fold serial dilution, n = 2
Method: as §2

[11] = biological target: T4, RSK1 (Homo sapiens, UniProt Q15418); assay: Miniaturized 33P-based kinase screening assay; type: biochemical; conditions: max 10 µM, 3-fold serial dilution, n = 2
T4 construct: purchased Reaction Biology Corporation (Malvern, PA), contract assay
Method: as §2

[12] = biological target: T5, p70S6K (Homo sapiens, UniProt P23443); assay: Miniaturized 33P-based kinase screening assay; type: biochemical; conditions: max 10 µM, 3-fold serial dilution, n = 2
T5 construct: purchased Reaction Biology Corporation (Malvern, PA), contract assay
T5 sequence (P23443 whole entry): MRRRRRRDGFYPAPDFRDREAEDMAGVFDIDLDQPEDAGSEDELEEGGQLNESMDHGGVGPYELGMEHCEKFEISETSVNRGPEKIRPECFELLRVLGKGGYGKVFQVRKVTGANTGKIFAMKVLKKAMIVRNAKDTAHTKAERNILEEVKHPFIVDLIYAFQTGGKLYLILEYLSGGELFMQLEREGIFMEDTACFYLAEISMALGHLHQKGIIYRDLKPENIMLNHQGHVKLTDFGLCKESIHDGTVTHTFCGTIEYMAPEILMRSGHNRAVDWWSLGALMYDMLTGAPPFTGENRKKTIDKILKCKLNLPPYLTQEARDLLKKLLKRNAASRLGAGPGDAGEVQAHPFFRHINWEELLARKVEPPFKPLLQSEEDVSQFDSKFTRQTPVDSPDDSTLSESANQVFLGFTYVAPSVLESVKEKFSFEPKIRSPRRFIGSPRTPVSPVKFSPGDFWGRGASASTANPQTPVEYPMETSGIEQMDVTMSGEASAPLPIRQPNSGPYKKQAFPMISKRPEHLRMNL
Method: as §2

[13] = biological target: T6, PLK2 (Homo sapiens, UniProt Q9NYY3); assay: Miniaturized 33P-based kinase screening assay; type: biochemical; conditions: max 10 µM, 3-fold serial dilution, n = 2
T6 construct: purchased Reaction Biology Corporation (Malvern, PA), contract assay
T6 sequence (Q9NYY3 whole entry): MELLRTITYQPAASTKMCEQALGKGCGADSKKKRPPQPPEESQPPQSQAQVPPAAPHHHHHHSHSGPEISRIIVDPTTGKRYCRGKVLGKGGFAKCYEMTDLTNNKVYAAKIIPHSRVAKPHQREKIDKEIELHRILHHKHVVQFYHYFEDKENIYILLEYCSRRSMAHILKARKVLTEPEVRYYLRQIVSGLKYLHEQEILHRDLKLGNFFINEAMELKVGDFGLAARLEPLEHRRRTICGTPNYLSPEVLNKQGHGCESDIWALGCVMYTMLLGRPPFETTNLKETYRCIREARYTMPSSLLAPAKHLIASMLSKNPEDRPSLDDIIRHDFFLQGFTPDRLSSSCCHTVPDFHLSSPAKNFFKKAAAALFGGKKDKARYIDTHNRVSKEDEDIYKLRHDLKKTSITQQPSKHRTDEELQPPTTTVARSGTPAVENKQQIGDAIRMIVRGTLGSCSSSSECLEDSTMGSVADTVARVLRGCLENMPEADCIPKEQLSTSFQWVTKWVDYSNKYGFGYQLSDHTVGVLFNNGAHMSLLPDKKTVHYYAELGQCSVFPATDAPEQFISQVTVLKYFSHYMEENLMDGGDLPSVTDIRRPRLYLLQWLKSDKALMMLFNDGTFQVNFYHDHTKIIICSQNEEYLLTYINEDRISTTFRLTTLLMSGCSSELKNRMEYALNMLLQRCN
Method: as §2

[14] = biological target: T7, RSK3 (Homo sapiens, UniProt Q15349); assay: Miniaturized 33P-based kinase screening assay; type: biochemical; conditions: max 10 µM, 3-fold serial dilution, n = 2
T7 construct: purchased Reaction Biology Corporation (Malvern, PA), contract assay
T7 sequence (Q15349 whole entry): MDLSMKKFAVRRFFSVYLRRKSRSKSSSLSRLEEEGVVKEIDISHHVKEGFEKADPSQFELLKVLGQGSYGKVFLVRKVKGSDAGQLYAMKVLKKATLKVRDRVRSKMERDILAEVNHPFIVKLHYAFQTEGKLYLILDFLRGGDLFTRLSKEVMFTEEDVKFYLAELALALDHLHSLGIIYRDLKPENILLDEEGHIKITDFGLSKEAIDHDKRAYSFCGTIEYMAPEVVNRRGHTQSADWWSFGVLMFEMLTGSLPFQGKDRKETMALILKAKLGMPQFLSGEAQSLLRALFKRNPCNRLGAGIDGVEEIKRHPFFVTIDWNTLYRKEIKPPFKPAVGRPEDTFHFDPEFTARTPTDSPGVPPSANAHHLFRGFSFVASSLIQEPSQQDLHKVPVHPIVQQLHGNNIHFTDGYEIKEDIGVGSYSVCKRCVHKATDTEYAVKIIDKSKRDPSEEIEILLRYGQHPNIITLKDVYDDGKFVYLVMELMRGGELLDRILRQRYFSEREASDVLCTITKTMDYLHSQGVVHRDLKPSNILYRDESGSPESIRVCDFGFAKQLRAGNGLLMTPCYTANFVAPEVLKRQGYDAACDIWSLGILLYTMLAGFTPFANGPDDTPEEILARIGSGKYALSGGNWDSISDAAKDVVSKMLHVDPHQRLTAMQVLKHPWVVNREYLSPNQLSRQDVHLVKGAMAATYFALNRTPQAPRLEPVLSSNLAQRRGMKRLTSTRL
Method: as §2

[15] = biological target: T8, Abl1 (Homo sapiens, UniProt P00519); assay: Miniaturized 33P-based kinase screening assay; type: biochemical; conditions: max 10 µM, 3-fold serial dilution, n = 2
T8 construct: purchased Reaction Biology Corporation (Malvern, PA), contract assay
T8 sequence (P00519 whole entry): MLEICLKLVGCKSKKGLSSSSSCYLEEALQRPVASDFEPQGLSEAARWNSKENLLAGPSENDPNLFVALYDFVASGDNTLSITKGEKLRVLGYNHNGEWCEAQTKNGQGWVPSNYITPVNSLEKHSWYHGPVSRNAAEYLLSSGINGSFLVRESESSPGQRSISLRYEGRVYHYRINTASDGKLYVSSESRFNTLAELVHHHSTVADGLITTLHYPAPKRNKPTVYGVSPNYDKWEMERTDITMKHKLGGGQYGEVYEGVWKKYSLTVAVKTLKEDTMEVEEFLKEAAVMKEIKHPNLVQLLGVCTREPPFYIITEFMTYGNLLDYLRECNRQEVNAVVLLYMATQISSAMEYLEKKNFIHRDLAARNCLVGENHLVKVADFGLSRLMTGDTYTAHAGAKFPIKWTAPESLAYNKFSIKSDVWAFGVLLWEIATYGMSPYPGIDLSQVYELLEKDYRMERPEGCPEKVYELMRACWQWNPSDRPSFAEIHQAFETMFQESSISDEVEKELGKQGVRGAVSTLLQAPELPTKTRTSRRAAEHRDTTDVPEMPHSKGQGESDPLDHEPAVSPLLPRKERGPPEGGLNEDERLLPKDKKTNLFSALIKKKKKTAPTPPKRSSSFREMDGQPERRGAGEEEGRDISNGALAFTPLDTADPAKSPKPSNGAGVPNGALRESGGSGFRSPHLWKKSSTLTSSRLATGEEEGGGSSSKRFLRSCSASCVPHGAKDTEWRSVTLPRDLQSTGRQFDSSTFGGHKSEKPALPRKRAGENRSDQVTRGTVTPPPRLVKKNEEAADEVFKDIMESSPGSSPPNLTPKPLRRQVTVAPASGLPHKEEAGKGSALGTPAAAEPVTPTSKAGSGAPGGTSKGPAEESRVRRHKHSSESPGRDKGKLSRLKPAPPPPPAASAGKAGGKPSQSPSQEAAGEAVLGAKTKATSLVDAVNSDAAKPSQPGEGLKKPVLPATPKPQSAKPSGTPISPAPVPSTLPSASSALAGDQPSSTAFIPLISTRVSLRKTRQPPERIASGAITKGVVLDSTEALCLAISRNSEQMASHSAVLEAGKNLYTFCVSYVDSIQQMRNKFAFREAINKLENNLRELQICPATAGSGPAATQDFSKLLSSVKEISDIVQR
Method: as §2

[16] = tested on: OCT4; assay: Immunoblotting of OCT4 in remaining colon tumor lines; type: cell-based; conditions: 0.1 µM SC-1
Method: as §1

SMILES: Cc1cc(Nc2ncc3c(n2)N(C)C(=O)N(c2cc(NC(=O)c4cccc(C(F)(F)F)c4)ccc2C)C3)n(C)n1 [SC-1]
- phospho-ERK 1/2 protein levels relative to total ERK1/2 ([1]; 0.1 µM SC-1, 5 min): 67±0.06 % of control
- phospho-ERK 1/2 protein levels relative to total ERK1/2 ([1]; 0.1 µM SC-1, 30 min): 56±0.06 % of control
- phospho-ERK 1/2 protein levels relative to total ERK1/2 ([1]; 0.1 µM SC-1, 1 hr): 46±0.06 % of control
- phospho-ERK 1/2 protein levels relative to total ERK1/2 ([1]; 0.1 µM SC-1, 4 hrs): 68±0.10 % of control
- Number of spheres per well vs control [2]: Increased Sphere Formation
- EC50 [3]: 2500 ± 1800 nM
- Fold Change from Initial Inocula [4]: 2
- Fold Change from Initial Inocula [5]: 20.6
- Fold Change from Initial Inocula [6]: 27.5
- Cloning efficiency, all tumor lines ([7]; assay conducted using Matrigel instead of soft agar (data not shown)): increased cloning efficiency
- Tumor lines with statistically significant increases in cumulative colony forming unit (CFU) mass ([7]; soft agar, 0.1 µM SC-1 for five days, vs control treated cells): 5/7
- IC50 [8]: ≥ 10 µM
- IC50 [9]: 10 µM
- IC50 [10]: 2500 nM
- IC50 [11]: 500 nM
- IC50 [12]: 1400 nM
- IC50 [13]: 2200 nM
- IC50 [14]: 3.3 µM
- IC50 [15]: 5 nM
- OCT4 protein expression [16]: unchanged or decreased
